Assay results taken from PubChem BioAssay AID330 (DTP/NCI, 2004).
Values joined by “and” are separate entries in the source; they are usually repeats but may differ in a detail not shown here. Identical values can stand only once. Toxic doses and inconclusive results are not listed.

Test system: P388 leukemia ip, CD2F1 mice, survival T/C
Assay: NCI In Vivo Anticancer Drug Screen. Data for tumor model P388 Leukemia (intraperitoneal) in CD2F1 (CDF1) mice
Conditions: endpoint: median survival time, higher = longer survival
Method in brief: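 Mice carrying the transplanted tumor received test compound or vehicle. Survival was recorded in each group, and the value is the treated-group measurement divided by that of the vehicle-treated control group.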

[1] = dose: 50.0 mg/kg/injection, schedule: Q01DX009 (ip), vehicle: saline with Tween-80
[2] = dose: 100.0 mg/kg/injection, schedule: Q01DX009 (ip), vehicle: saline with Tween-80
[3] = dose: 200.0 mg/kg/injection, schedule: Q01DX009 (ip), vehicle: saline with Tween-80
[4] = dose: 50.0 mg/kg/injection, schedule: Q01DX005 (ip), vehicle: Klucel (hydroxypropylcellulose) (HPC)
[5] = dose: 100.0 mg/kg/injection, schedule: Q01DX005 (ip), vehicle: Klucel (hydroxypropylcellulose) (HPC)

CCCCCCCCC(=O)C(=O)c1ccc(O)c(C)c1O
T/C (dose: 50.0 mg/kg/injection, schedule: Q01DX009 (ip), vehicle: Klucel (hydroxypropylcellulose) (HPC)): 112 % of control
T/C (dose: 100.0 mg/kg/injection, schedule: Q01DX009 (ip), vehicle: Klucel (hydroxypropylcellulose) (HPC)): 109 % of control
T/C (dose: 200.0 mg/kg/injection, schedule: Q01DX009 (ip), vehicle: Klucel (hydroxypropylcellulose) (HPC)): 110 % of control

CN(CCN(C)C(=S)SCc1ccccc1)C(=S)SCc1ccccc1
T/C (dose: 6.25 mg/kg/injection, schedule: Q01DX009 (ip), vehicle: Klucel (hydroxypropylcellulose) (HPC)): 100 % of control
T/C (dose: 12.5 mg/kg/injection, schedule: Q01DX009 (ip), vehicle: Klucel (hydroxypropylcellulose) (HPC)): 116 % of control
T/C (dose: 25.0 mg/kg/injection, schedule: Q01DX009 (ip), vehicle: Klucel (hydroxypropylcellulose) (HPC)): 105 % of control

O=C1C2C3C=CC(C2C(=O)N1CN1CCSCC1)C1C2C(=O)N(CN4CCSCC4)C(=O)C2C31 (stereo not given)
T/C (dose: 25.0 mg/kg/injection, schedule: Q01DX009 (ip), vehicle: saline with Tween-80): 99 % of control
T/C [1]: 116 % of control and 121 % of control
T/C [2]: 165 % of control
T/C [3]: 166 % of control and 194 % of control

Cc1cnc(=O)[nH]c1NO
T/C (dose: 100.0 mg/kg/injection, schedule: Q04DX002 (ip), vehicle: Klucel (hydroxypropylcellulose) (HPC)): 102 % of control
T/C (dose: 200.0 mg/kg/injection, schedule: Q04DX002 (ip), vehicle: Klucel (hydroxypropylcellulose) (HPC)): 100 % of control
T/C (dose: 400.0 mg/kg/injection, schedule: Q04DX002 (ip), vehicle: Klucel (hydroxypropylcellulose) (HPC)): 98 % of control

CCOC(=O)c1cnc(SC)n(-c2c(Cl)cccc2Cl)c1=O
T/C [4]: 98 % of control
T/C [5]: 97 % of control
T/C (dose: 200.0 mg/kg/injection, schedule: Q01DX005 (ip), vehicle: Klucel (hydroxypropylcellulose) (HPC)): 99 % of control

COc1c[nH]c(CO)cc1=O
T/C (dose: 100.0 mg/kg/injection, schedule: Q01DX009 (ip), vehicle: saline): 101 % of control and 104 % of control
T/C (dose: 200.0 mg/kg/injection, schedule: Q01DX009 (ip), vehicle: saline): 108 % of control and 114 % of control
T/C (dose: 400.0 mg/kg/injection, schedule: Q01DX009 (ip), vehicle: saline): 99 % of control and 114 % of control

COC(=O)c1nc(N)nc(C(=O)OC)c1C(=O)c1ccccc1
T/C (dose: 60.0 mg/kg/injection, schedule: Q01DX005 (ip), vehicle: Klucel (hydroxypropylcellulose) (HPC)): 100 % of control
T/C (dose: 120.0 mg/kg/injection, schedule: Q01DX005 (ip), vehicle: Klucel (hydroxypropylcellulose) (HPC)): 93 % of control

CC1=C(c2ccccc2)OS(=O)(=O)NC1=O
T/C (dose: 25.0 mg/kg/injection, schedule: Q01DX009 (ip), vehicle: water): 114 % of control
T/C (dose: 50.0 mg/kg/injection, schedule: Q01DX009 (ip), vehicle: water): 104 % of control
T/C (dose: 100.0 mg/kg/injection, schedule: Q01DX009 (ip), vehicle: water): 106 % of control
T/C (dose: 200.0 mg/kg/injection, schedule: Q01DX009 (ip), vehicle: water): 103 % of control
T/C (dose: 400.0 mg/kg/injection, schedule: Q01DX009 (ip), vehicle: water): 113 % of control

C=CCNc1ccc(C)cc1
T/C (dose: 33.0 mg/kg/injection, schedule: Q01DX009 (ip), vehicle: saline with Tween-80): 116 % of control
T/C [1]: 116 % of control
T/C (dose: 100.0 mg/kg/injection, schedule: Q04DX003 (ip), vehicle: saline with Tween-80): 100 % of control
T/C (dose: 200.0 mg/kg/injection, schedule: Q04DX003 (ip), vehicle: saline with Tween-80): 122 % of control
T/C (dose: 400.0 mg/kg/injection, schedule: Q04DX003 (ip), vehicle: saline with Tween-80): 90 % of control

C1CN1CN1CC1
T/C [4]: 102 % of control
T/C [5]: 99 % of control

CC(C)(C)CC(C)(C)c1ccc(OCc2ccc(F)cc2)cc1
T/C [1]: 99 % of control
T/C [2]: 95 % of control
T/C [3]: 98 % of control

[O-]c1nn(Cc2ccccc2)c2cccc[n+]12
T/C (dose: 100.0 mg/kg/injection, schedule: Q04DX002 (ip), vehicle: saline): 103 % of control
T/C (dose: 200.0 mg/kg/injection, schedule: Q04DX002 (ip), vehicle: saline): 99 % of control
T/C (dose: 400.0 mg/kg/injection, schedule: Q04DX002 (ip), vehicle: saline): 100 % of control

O=C(O)C1Cc2c([nH]c3ccccc23)C(C(=O)O)N1 (stereo not given)
T/C (dose: 50.0 mg/kg/injection, schedule: Q04DX003 (ip), vehicle: saline): 95 % of control
T/C (dose: 100.0 mg/kg/injection, schedule: Q04DX003 (ip), vehicle: saline): 95 % of control
T/C (dose: 200.0 mg/kg/injection, schedule: Q04DX003 (ip), vehicle: saline): 93 % of control

CSCCOCc1cc(C)no1
T/C (dose: 60.0 mg/kg/injection, schedule: Q01DX005 (ip), vehicle: saline with Tween-80): 100 % of control
T/C (dose: 120.0 mg/kg/injection, schedule: Q01DX005 (ip), vehicle: saline with Tween-80): 100 % of control
T/C (dose: 240.0 mg/kg/injection, schedule: Q01DX005 (ip), vehicle: saline with Tween-80): 100 % of control
